Source: US20020151572A1, “PHARMACEUTICAL USES FOR NOS INHIBITORS” (priority 1998, published 2002)
Structures can show the parent of a compound that is named as a salt.

SMILES: CC(C)Oc1cc(C(O)CN2CCN(CCc3ccccc3)CC2)ccc1-c1cccc(N)n1 (stereo not shown) (as salt: hydrochloride) [Example 1, 1-[4-(6-AMINO-PYRIDIN-2-YL)-3-ISOPROPOXY-PHENYL]-2-(4-PHENETHYL-PIPERAZIN-1-YL)-ETHANOL]
- melting point: 148 to 165 °C
